Structures are written as SMILES. Where two headings read alike, the source gives them in different places.

Data set [1] has as its system EML4-ALK-BAF3 cell line xenograft. Type of data set: in vivo. Conditions: Table C, 40 mg/kg oral gavage once daily. The text has this: A representative protocol for the in vivo experiment is as followed to establish the subcutaneous EML4-ALK-BAF3 cell line xenograft model in nude mice and to evaluate the in vivo therapeutic efficacy of the compounds: Animals: Male Balb/c nude mice (6˜8 weeks old) were obtained from SLAC Laboratory Animal, Shanghai, China. Animals were maintained under SPF conditions in sterile filter top cages and housed on HEPA-filtered ventilated racks. Animals received sterile rodent chow and water ad libitum. Cell line: BAF3-EML4-ALK stable cell line, the BAF3 cell which could expressed fusion oncogene EML4-ALK. S.c. Xenograft Models in Athymic Mice: Cells for implantation into athymic mice were harvested and pelleted by centrifugation at 1200 r/min for 5 min. Cells were washed once and resuspended in sterile PBS buffer with 5×10^6 in 200 μl. Then cells were implanted s.c. into the right scapular region of each mouse and allowed to grow to 200˜300 mm^3 before the administration of compound. Preparation of the Dose Formulation: each compound was suspensioned in 0.5% CMC-Na. Randomization: When tumor volumes approach 200˜300 mm^3, the mice will be randomized into 5 groups according to the tumor volume. The day will be denoted as D1 and the treatments will be started at this day. Administered: Dose will be administered with oral gavage needle once daily for number of days. Treatment of compounds administered in 0.5% CMC-Na by p.o. gavage was initiated when tumors were 200˜300 mm^3 in volume. Observations: After inoculation, the animals will be checked daily for morbidity and mortality. At the time of routine monitoring, the animals will be checked for any effects of tumor growth and treatments on normal behavior such as mobility, body weight gain/loss (body weights will be measured twice weekly or every other day), eye/hair matting and any other abnormal effect. Death and observed clinical signs will be recorded on the basis of the numbers of animals within each subset. Tumor Size Measurements: Tumor volume was determined by measurement with electronic vernier calipers every 3 days and tumor volume was calculated as the product of its length×width^2×0.5. Effect studies: Tumor volume was expressed on indicated days as the mean tumor volume ±SD. […] Significant differences between the treated versus the control groups (p<0.05) were determined using t test. At study endpoint, after blood collection, mice were practiced euthanasia by cervical dislocation, the tumor tissue was collected first, then abdominal cavity was cut open, liver and spleen were excised, then weight after the gallblader was removed respectively. Organ weight and Organ/body weight ratios between the treated versus the control groups were compared. Ratios was calculated as follows: Ratios=Organ weight/(body weight-tumor weight). Both organ weight and Organ/body weight ratios were also expressed as mean±SD, and significant differences between the treated versus the control groups (p<0.05) were determined using t test.

Data set [2] can be described thus: PK (pharmacokinetic) study in rat, cassette dosing. Conditions: male, Wistar, plasma. It counts as in vivo. How it is done: A representative protocol for the PK (pharmacokinetic) is as followed: Animals used were Wistar rat, male and weight about 300-359 grams. Compound 21 and 22 were given either IV or oral to the same animals by cassette dosing. The dose for each compound is 1 mg/kg (volume 5 ml/kg) IV and 2 mg/kg (volume 10 ml/kg) oral. The formulation for IV was in PBS, the pH is adjusted by dilute HCl until compounds were totally dissolved. 0.5% Na-CMC suspension was used for the oral formulation. Sample collection: for IV route, plasma sample were collected at the time point 0.083, 0.25, 0.5, 1, 1.5, 2, 4, 6, 8, 12, 24 h. For oral route, plasma sample were collected at the time point 0.167, 0.33, 0.5, 1, 2, 4, 6, 8, 12, 24 h. Analysis: LC-MS/MS is used to calculate PK parameters: t1/2, tmax, Cmax, Vss and AUC etc.

With `[2H]C([2H])([2H])C([2H])([2H])N1CCC(n2cc(-c3cnc(N)c(O[C@H](C)c4c(Cl)ccc(F)c4Cl)c3)cn2)CC1` [Compound 22, (R)-3-(1-(2,6-dichloro-3-fluorophenyl)ethoxy)-5-(1-(1-d5-ethylpiperidin-4-yl)-1H-pyrazol-4-yl)pyridin-2-amine], the “Tumor growth inhibition (TGI, %)” value in data set [1] (day 2) came to 22.58%. In addition, the “Tumor growth inhibition (TGI, %)” value in data set [1] (day 5) was determined as 53.72%. The “Tumor growth inhibition (TGI, %)” value in data set [1] (day 8) is 66.61%. Further, in data set [1] (day 11), the “Tumor growth inhibition (TGI, %)” value came to 82.97%. Further, the “Tumor growth inhibition (TGI, %)” value in data set [1] (day 14) is given as 87.64%. In data set [2] (IV cassette 1 mg/kg), the area under the curve AUC(0-inf) is 337 ng·h/mL, the exposure AUC(0-t) is 336 ng·h/mL, the highest concentration (Cmax) was determined as 259 ng/mL and the mean residence time (MRT) was 3.11 h. Moreover, in data set [2] (IV cassette 1 mg/kg), the Tmax amounted to 0.083 h, the clearance was 49.5 mL/min/kg and the half-life is 3.04 h. In data set [2] (oral cassette 2 mg/kg), this compound yielded an AUC(0-inf) of 146 ng·h/mL, an AUC(0-t) of 140 ng·h/mL, a Cmax of 21 ng/mL and a mean residence time MRT of 5.28 h. Besides, in data set [2] (oral cassette 2 mg/kg), the Tmax is 4 h and the half-life is 3.1 h. The bioavailability in data set [2] (oral cassette 2 mg/kg vs IV 1 mg/kg, read-out: F (bioavailability)) was 20.8%.

The term AUC(0-inf) denotes total exposure, with the tail of the curve extrapolated. Read a low AUC(0-inf) as less exposure. As a reminder, the AUC(0-t) is the area under the concentration-time curve up to a stated or last time point. Read a high AUC(0-t) as high exposure. As a reminder, the Cmax is the highest concentration seen after dosing. One may read the MRT as a mean duration of stay, worked out from the concentration-time curve. As usually defined, the Tmax is the time at which the peak concentration occurs. As usually defined, the clearance is a measure of how efficiently the substance is removed, as volume per time. Lower therefore signals inefficient removal. What is called half-life is the time in which the quantity being followed falls by half. The low end stands for rapid decline, the high end for slow decline. Usually bioavailability stands for dose-corrected exposure relative to a reference, in per cent.

For the origin of these results see patent publication US20140350050A1, “PYRIDINE COMPOUNDS AS INHIBITORS OF KINASE” (TELIGENE LTD., priority 2011, published 2014).
